Peptide text beside a SMILES is read from it.

For test [1], the system named is PBMCs from elderly donors, heat-inactivated SARS-COV2. Nature of the test: COVID-specific antibodies in PBMCs from elderly donors (ELISA). It counts as cell-based, human. The following applies: PBMCs from elderly donors (75-95 years), 10 uM.
Test [2] deals with sMAC signalling (sestrin 1, 2 and 3 expression, AMPK and MAPK phosphorylation). Description: Immunoblot of sMAC signalling in CD4+ T cells treated with DOS compounds (heat-map). It counts as cell-based, human. On the procedure: CD4+ T cells were isolated from PBMCs from healthy donors, treated with DOS compounds for 4 hours and harvested for immunoblot analysis. The heat-map of Sestrin 1, Sestrin 2, Sestrin 3, p-mTOR1, p-JNK, p-AMPK, p-ERK1/2, and p-p38, represents the mean of three to nine experiments. Histone 3 was used as a control.
• 1. CD4+ cells were separated from PBMC using appropriate microbeads kit (Miltenyi) • 2. Cells were resuspended in whole RPMI medium and plated in the 24-multiwell plate • 3. Then activated for 4 hrs with DOS compounds • 4. Cells were then harvested, washed with PBS and resuspended in lysis buffer (RIPA with […]) • 5. The cell-lysis mix was incubated for 20 mins on ice • 6. Samples were centrifuged for 20 mins at the max speed • 7. The supernatant was collected and Lemmli buffer+β-Mercaptoethanol was added • 8. Samples were then boiled for 5 mins at 95° C. • 9. Samples were loaded on the polyacrylamide gel and left to run in TRIS-Glycine-SDS running buffer • 10. Once the run was completed the proteins were transferred from the gel to the nitrocellulose membrane by using the Trans-Blot machine (Biorad) • 11. Membrane was washed with 0.1% Tween-TBS buffer and blocked in 5% non-fat milk for 1 hr • 12. Followed incubation with the primary antibody o.n. • 13. The day after, the membrane was washed with 0.1% Tween-TBS buffer for three times for at least 30 mins each • 14. Secondary antibody was then added for 1h • 15. The membrane was the washed with 0.1% Tween-TBS buffer for three times for at least 30 mins each • 16. The signal was developed using ECL solution
This was shown by downregulation of sestrin 1, 2 and 3 expression, and AMPK and MAPK phosphorylation.
On the technique in general: A western blot detects proteins with antibodies after separation by electrophoresis.

The next test relates to T cells. Nature of the test: Seahorse assay for cell metabolism (OCR, FAO). It counts as cell-based, human. The following applies: T cells treated for 24h. On the procedure: Senescent T cells and stem cells were analysed using FACS analysis. (B—C) Represented is the ratio to untreated sample. Each dot is an individual donor. (D) Oxygen Consumption Rate (OCR) of T cells treated with DOS46L for 24h were measured by Seahorse. […] (E) The FAO index was calculated by OCR difference between Ctrl and DOS46L treated T cells in the presence or in the absence of the FAO inhibitor etomoxir by Seahorse. Student's T-test was used to analyse the data. **p<0.01; ***p<0.001.
• 1. CD4+ cells were purified from PBMC using appropriate microbeads (Miltenyi) • 2. Purified CD4+ cells were activated with CD3/CD28 Dynabeads (Gibco) and treated over-night with DOS46L at 10 μM. • 3. Day after, the conventional growth media was removed from the cells and was added the “substrate-limited growth media” composed of basic DMEM plus 0.5 mM glucose, 1 mM glutamine and 1% FBS. • 4. Cells were then incubated with this media for 4 hrs in incubator. • 5. Cells were then counted and plated at the concentration of 2*10^5 cells/well in the XF96 well plate pre-treated with poly-lysine. • 6. Cells were then supplemented with the “assay media” composed of XF DMEM with 2 mM of glucose and 0.5 mM L-carnitine. • 7. […] Seahorse machine took reads of OCR values at different time points for the time span of 120 mins. […] Cells were left in incubator for 12 days and then they were analysed.

Test [3] has as its system Breast cancer cell line (MCF-7). Description: Cancer cell death by FACS live-dead staining. It counts as cell-based. The following applies: 20 uM, 48 hours. On the procedure: (§1) (Left) Immortalized paediatric neuroblastoma cell line (sh-sy5y) was treated at different concentrations of DOS46L and DOS144D (from 1 uM to 20 uM) for 48 hours, then analysed by FACS with live-dead staining. (Right) Breast cancer cell line (MCF-7) was treated at the fixed concentration of DOS46L and DOS144D (20 uM) for 48 hours, then analysed by FACS with live-dead dye staining. UN depicts untreated controls. Results of triplicate cultures are shown.
Background: In flow cytometry, cells or beads pass a laser one at a time.

Test [4] relates to paediatric neuroblastoma cell line (sh-sy5y). Nature of the test: Cancer cell death by FACS live-dead staining. Format: cell-based. As to conditions: 1 uM to 20 uM, 48 hours. The method, then: as §1
The next test deals with H1N1 PR8/54. Also on record: species or system mice. The following applies: mouse, in vivo.
For test [5], the system named is sMAC activation (Sestrin 2, p-p38). Description: Titration of DOS46L in senescent CD4+ CD27− CD28− T cells, immunoblot. Format: cell-based, human. The following applies: within 4 hours of treatment. On the procedure:
FIG. 7 illustrates titration of DOS46L. (A-B) CD4+ CD27− CD28− T cells were isolated from PBMCs from healthy donors and treated with increasing doses of DOS46L compound for 4 hours and harvested for immunoblot analysis. (A) Levels of Sestrin 2, p-p38 and H2B were evaluated by immunoblot. (B) Quantification of Sestrin 2 was analysed with Histone 3 as a loading control. Represented are the mean values±SEM of at least three independent experiments. Values are compared using One-Way ANOVA test followed by Tukey's post hoc test. (C-D) CD4+ CD27−CD28− T cells were treated with DOS46L compound (10 uM) for 0.5, 1, 2 and 4 hours and harvested for immunoblot analysis at indicated time points. (C) Levels of Sestrin 1, Sestrin 2, and Sestrin 3 were evaluated by immunoblot. Histone 3 was used as a loading control. (D) Quantification of Sestrin 1, Sestrin 2 and Sestrin 3, with Histone 3 as a loading control. Represented are the mean values±SEM of at least four independent experiments. Values are compared using One-Way ANOVA test followed by Tukey's post hoc test or Student's T-test. *p<0.05, **p<0.01
• 1. CD4+ cells were separated from PBMC using appropriate microbeads kit (Miltenyi) • 2. Cells were resuspended in whole RPMI medium and plated in the 24-multiwell plate • 3. Then activated for 4 hrs with DOS compounds • 4. […]

On to `CC[C@H](C)[C@@H]1NC(=O)[C@H](Cc2ccccc2)NC(=O)[C@H](C)NC(=O)[C@H](C(C)C)NC(=O)[C@@H]2CCCN2C1=O` [DOS46L] (cyclo(AFIPV)), for which the “COVID-specific IgG antibodies” value in test [1] is reported as “stimulation of COVID-specific antibodies”. Also, the “effectiveness at sMAC inactivation among all of the DOS compounds tested” value in test [2] is “most effective”. For the same compound, the sMAC pathway silenced in test [2] was determined as 90%. Further, the “sestrins inhibited (pan or selective inhibitor)” value in test [2] (CD4+ T cells, 4 hours, FIG. 5 heat-map) is given as “inhibit all three sestrins”. Further, the “oxidative metabolism and Fatty Acid Oxidation (FAO)” value in the test with T cells was “Induction of Fatty Acid Oxidation (FAO)”. In addition, the cancer cell death entry in test [3] and in test [4] was “induction of cancer cell death” throughout. The “protection from lethal viral challenge without vaccine” value in the test with H1N1 PR8/54 was “prevented death”. In addition, the “concentration from which sMAC activation is suppressed” value in test [5] stood at 16 nM.
